Data from doi:10.1101/2023.04.18.537371v1 (bioRxiv, 2023).
Peptide text beside a SMILES is read from it.

What was measured:
[1] = Tissue distribution in SD rats after single subcutaneous injection; assay type: in vivo, SD rat
[2] = test system: SD rat hepatocytes; experiment: Hepatocyte stability; assay type: in vitro ADME; settings: 1.00 μM
[3] = test system: beagle dog hepatocytes; experiment: Hepatocyte stability; assay type: in vitro ADME; settings: 1.00 μM
[4] = biological target: T1, CYP2C8 (Homo sapiens, UniProt P10632); experiment: CYP450 inhibition assay; assay type: in vitro ADME
T1 sequence (P10632 1-490): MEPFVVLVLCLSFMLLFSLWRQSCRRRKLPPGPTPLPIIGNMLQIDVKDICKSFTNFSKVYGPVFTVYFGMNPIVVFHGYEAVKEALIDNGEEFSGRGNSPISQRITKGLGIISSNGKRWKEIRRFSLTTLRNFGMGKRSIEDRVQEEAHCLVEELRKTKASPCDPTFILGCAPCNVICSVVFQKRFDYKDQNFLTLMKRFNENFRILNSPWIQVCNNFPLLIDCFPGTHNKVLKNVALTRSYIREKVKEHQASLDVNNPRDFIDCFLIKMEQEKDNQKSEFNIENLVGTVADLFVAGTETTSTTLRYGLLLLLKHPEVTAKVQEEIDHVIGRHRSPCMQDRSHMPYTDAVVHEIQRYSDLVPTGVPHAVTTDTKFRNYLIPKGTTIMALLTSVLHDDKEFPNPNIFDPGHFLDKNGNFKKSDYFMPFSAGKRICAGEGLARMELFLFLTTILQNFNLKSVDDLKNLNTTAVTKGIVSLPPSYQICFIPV

[5] = biological target: CYP2D6 (Homo sapiens, UniProt P10635); experiment: CYP450 inhibition assay; assay type: in vitro ADME
CYP2D6, sequence (P10635 whole entry): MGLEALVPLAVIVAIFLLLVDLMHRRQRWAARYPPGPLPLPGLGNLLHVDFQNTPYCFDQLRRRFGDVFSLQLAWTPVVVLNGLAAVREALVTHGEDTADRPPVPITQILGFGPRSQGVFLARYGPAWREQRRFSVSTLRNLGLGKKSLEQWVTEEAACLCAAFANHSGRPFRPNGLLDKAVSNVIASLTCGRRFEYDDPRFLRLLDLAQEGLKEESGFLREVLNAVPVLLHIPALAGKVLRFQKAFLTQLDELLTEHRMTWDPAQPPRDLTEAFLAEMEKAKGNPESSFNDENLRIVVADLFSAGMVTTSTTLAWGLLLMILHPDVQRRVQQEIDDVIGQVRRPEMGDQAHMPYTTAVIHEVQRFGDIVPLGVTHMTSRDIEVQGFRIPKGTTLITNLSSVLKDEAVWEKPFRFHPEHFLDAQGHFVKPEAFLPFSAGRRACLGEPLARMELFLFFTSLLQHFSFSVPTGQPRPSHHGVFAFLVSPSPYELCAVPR

[6] = test system: CYP3A; experiment: CYP450 inhibition assay; assay type: in vitro ADME; settings: human, pooled human liver microsomes
[7] = biological target: CYP2C9 (Homo sapiens, UniProt P11712); experiment: CYP time-dependent inhibition assay; assay type: in vitro ADME
CYP2C9, sequence (P11712 whole entry): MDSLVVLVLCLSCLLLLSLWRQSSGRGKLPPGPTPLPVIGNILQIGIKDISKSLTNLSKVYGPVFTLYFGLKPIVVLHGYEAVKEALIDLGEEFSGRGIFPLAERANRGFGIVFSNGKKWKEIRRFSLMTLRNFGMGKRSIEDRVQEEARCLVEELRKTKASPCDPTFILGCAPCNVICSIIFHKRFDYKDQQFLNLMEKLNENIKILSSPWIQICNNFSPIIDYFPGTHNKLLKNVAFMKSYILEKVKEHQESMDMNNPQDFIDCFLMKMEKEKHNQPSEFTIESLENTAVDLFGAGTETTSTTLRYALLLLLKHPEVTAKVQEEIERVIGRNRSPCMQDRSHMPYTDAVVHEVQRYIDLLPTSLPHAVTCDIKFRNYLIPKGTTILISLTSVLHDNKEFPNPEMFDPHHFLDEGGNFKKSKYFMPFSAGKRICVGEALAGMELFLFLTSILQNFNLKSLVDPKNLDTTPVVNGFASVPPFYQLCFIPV

[8] = test system: CYP2B6; assay type: in vitro ADME; settings: cryopreserved human hepatocytes, three donors, 0.100 to 15.0 μM, 48 h, 37°C
[9] = test system: human hepatocytes; experiment: Concentration change of FC-12738 in the CYP induction assay; assay type: in vitro ADME; settings: 24 hours, 37°C
[10] = biological target: BCRP (Homo sapiens, UniProt Q9UNQ0); experiment: Inhibition of BCRP in Caco-2 cells; assay type: in vitro ADME
BCRP, sequence (Q9UNQ0 whole entry): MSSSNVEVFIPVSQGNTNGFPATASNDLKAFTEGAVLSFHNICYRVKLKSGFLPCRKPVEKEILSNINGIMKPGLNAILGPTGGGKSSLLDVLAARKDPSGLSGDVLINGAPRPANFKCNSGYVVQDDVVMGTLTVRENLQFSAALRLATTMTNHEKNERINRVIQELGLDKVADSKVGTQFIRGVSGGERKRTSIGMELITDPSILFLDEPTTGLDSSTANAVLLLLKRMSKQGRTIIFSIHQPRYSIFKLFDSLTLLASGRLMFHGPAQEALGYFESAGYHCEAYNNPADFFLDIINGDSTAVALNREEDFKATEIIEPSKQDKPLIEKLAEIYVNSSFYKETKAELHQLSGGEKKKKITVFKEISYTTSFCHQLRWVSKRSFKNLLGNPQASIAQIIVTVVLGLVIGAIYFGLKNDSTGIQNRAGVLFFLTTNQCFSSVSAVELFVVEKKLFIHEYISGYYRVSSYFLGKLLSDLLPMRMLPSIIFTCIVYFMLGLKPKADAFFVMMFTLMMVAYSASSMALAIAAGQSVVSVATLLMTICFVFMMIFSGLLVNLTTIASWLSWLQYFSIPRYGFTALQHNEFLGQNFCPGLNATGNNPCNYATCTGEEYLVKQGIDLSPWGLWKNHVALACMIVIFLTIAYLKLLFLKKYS

[11] = biological target: OAT1 (Homo sapiens, UniProt Q4U2R8); experiment: Transporter inhibition in HEK293 cells; assay type: in vitro ADME
OAT1, sequence (Q4U2R8 whole entry): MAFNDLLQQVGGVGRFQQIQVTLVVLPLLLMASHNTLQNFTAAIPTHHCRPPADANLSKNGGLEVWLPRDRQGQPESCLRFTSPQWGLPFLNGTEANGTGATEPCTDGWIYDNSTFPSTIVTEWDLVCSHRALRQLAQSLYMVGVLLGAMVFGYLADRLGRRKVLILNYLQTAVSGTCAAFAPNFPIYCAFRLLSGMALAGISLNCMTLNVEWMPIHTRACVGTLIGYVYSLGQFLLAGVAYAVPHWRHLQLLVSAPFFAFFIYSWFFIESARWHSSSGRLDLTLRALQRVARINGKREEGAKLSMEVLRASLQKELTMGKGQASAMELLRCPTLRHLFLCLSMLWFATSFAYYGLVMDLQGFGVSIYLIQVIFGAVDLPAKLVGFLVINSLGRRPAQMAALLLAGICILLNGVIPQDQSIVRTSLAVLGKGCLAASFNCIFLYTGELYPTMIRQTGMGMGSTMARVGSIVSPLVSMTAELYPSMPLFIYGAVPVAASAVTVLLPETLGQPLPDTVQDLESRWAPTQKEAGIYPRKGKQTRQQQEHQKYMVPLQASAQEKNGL

[12] = biological target: OCT2 (Homo sapiens, UniProt O15244); experiment: Transporter inhibition in HEK293 cells; assay type: in vitro ADME
OCT2, sequence (O15244 whole entry): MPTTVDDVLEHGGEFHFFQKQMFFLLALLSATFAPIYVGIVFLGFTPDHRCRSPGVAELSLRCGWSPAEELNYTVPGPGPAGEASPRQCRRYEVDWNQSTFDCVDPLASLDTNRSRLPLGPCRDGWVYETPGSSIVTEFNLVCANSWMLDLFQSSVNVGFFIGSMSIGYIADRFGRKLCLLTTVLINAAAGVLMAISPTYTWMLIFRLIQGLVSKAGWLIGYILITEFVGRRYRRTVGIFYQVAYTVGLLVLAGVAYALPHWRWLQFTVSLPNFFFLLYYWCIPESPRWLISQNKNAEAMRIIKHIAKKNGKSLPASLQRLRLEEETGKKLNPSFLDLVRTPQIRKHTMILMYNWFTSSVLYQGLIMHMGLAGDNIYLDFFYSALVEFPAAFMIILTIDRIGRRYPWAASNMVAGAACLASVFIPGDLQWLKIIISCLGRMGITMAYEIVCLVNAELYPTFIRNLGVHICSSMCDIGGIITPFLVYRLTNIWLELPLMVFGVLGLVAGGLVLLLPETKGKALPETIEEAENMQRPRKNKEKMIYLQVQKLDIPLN

[13] = biological target: MATE1 (Homo sapiens, UniProt Q96FL8); experiment: Transporter inhibition in HEK293 cells; assay type: in vitro ADME
MATE1, sequence (Q96FL8 whole entry): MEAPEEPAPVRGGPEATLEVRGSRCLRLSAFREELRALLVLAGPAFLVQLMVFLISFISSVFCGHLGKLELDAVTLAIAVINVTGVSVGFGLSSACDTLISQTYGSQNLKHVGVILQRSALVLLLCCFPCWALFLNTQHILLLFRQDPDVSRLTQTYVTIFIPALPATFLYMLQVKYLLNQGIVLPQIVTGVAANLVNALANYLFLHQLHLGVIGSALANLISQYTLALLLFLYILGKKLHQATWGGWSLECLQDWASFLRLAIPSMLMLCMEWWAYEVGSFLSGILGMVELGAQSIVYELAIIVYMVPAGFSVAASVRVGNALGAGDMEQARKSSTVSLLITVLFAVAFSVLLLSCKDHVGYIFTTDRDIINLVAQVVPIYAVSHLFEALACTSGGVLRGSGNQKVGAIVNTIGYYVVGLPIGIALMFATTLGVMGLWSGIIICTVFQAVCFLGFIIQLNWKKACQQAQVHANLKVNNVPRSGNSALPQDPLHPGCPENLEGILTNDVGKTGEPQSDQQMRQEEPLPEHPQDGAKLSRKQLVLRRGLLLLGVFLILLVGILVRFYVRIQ

[14] = kidney, male SD rats, SC 10 mg/kg single
[15] = large intestine, male SD rats, SC 10 mg/kg single
[16] = liver, male SD rats, SC 10 mg/kg single
[17] = lung, male SD rats, SC 10 mg/kg single
[18] = male, SD, rat, fat, sc, 10 mg/kg
[19] = male, SD, rat, heart, sc, 10 mg/kg
[20] = male, SD, rat, kidney, sc, 10 mg/kg
[21] = male, SD, rat, large intestine, sc, 10 mg/kg
[22] = male, SD, rat, liver, sc, 10 mg/kg
[23] = male, SD, rat, lung, sc, 10 mg/kg
[24] = male, SD, rat, muscle, sc, 10 mg/kg
[25] = male, SD, rat, plasma, sc, 10 mg/kg
[26] = male, SD, rat, small intestine, sc, 10 mg/kg
[27] = male, SD, rat, spleen, sc, 10 mg/kg
[28] = male, SD, rat, stomach, sc, 10 mg/kg
[29] = muscle, male SD rats, SC 10 mg/kg single
[30] = small intestine, male SD rats, SC 10 mg/kg single
[31] = spleen, male SD rats, SC 10 mg/kg single
[32] = stomach, male SD rats, SC 10 mg/kg single

Compound: CC(C)[C@@H](NC(=O)[C@H](N)Cc1ccc(O)cc1)C(=O)N[C@H](CC(=O)O)C(=O)N[C@H](CCCCN)C(=O)N[C@H](CCCNC(=N)N)C(=O)O [FC-12738, (D-Tyr)-(D-Val)-(D-Asp)-(D-Lys)-(D-Arg)] (HELM PEPTIDE1{[dY].[dV].[dD].[dK].[dR]}$$$$V2.0)
- AUC0-last [1, 14]: 135000 ng·h/g
- Cmax [1, 14]: 28500 ng/g
- Tmax [1, 14]: 30 min
- AUC0-last [1, 15]: 4040 ng·h/g
- Cmax [1, 15]: 2150 ng/g
- Tmax [1, 15]: 30 min
- AUC0-last [1, 16]: 4190 ng·h/g
- Cmax [1, 16]: 1270 ng/g
- Tmax [1, 16]: 30 min
- AUC0-last [1, 17]: 6840 ng·h/g
- Cmax [1, 17]: 5330 ng/g
- Tmax [1, 17]: 30 min
- Tolerability / adverse effects in-life ([1]; male SD rats, SC 10 mg/kg single, tissue distribution study): No adverse effect was observed
- tissue level at time at 0.5 h ([1]; male, SD, rat, brain, sc, 10 mg/kg): 128 ng/g
- tissue level at time at 0.5 h [1, 18]: 1070 ng/g
- tissue level at time at 2 h [1, 18]: 103 ng/g
- tissue level at time at 0.5 h [1, 19]: 2150 ng/g
- tissue level at time at 2 h [1, 19]: 365 ng/g
- tissue level at time at 0.5 h [1, 20]: 28500 ng/g
- tissue level at time at 2 h [1, 20]: 17300 ng/g
- tissue level at time at 8 h [1, 20]: 14300 ng/g
- tissue level at time at 0.5 h [1, 21]: 2150 ng/g
- tissue level at time at 2 h [1, 21]: 430 ng/g
- tissue level at time at 8 h [1, 21]: 226 ng/g
- tissue level at time at 0.5 h [1, 22]: 1270 ng/g
- tissue level at time at 2 h [1, 22]: 616 ng/g
- tissue level at time at 8 h [1, 22]: 269 ng/g
- tissue level at time at 0.5 h [1, 23]: 5330 ng/g
- tissue level at time at 2 h [1, 23]: 752 ng/g
- tissue level at time at 8 h [1, 23]: 109 ng/g
- tissue level at time at 0.5 h [1, 24]: 1490 ng/g
- tissue level at time at 2 h [1, 24]: 191 ng/g
- tissue level at time at 8 h [1, 24]: 46.4 ng/g
- AUC(0-t) [1, 25]: 14400 ng·h/mL
- Cmax [1, 25]: 14200 ng/mL
- Tmax [1, 25]: 30 min
- level at 0.5 h [1, 25]: 14200 ng/mL
- level at 2 h [1, 25]: 1790 ng/mL
- level at 8 h [1, 25]: 5.04 ng/mL
- tissue level at time at 0.5 h [1, 26]: 2060 ng/g
- tissue level at time at 2 h [1, 26]: 775 ng/g
- tissue level at time at 8 h [1, 26]: 188 ng/g
- tissue level at time at 0.5 h [1, 27]: 1490 ng/g
- tissue level at time at 2 h [1, 27]: 345 ng/g
- tissue level at time at 8 h [1, 27]: 239 ng/g
- tissue level at time at 0.5 h [1, 28]: 3370 ng/g
- tissue level at time at 2 h [1, 28]: 555 ng/g
- tissue level at time at 8 h [1, 28]: 96.7 ng/g
- AUC0-last [1, 29]: 1930 ng·h/g
- Cmax [1, 29]: 1490 ng/g
- Tmax [1, 29]: 30 min
- AUC0-last [1, 30]: 4970 ng·h/g
- Cmax [1, 30]: 2060 ng/g
- Tmax [1, 30]: 30 min
- AUC0-last [1, 31]: 3280 ng·h/g
- Cmax [1, 31]: 1490 ng/g
- Tmax [1, 31]: 30 min
- AUC0-last [1, 32]: 4760 ng·h/g
- Cmax [1, 32]: 3370 ng/g
- Tmax [1, 32]: 30 min
- intrinsic clearance CLint(hep) ([2]; cryopreserved SD rat hepatocytes, 37.0°C, 120 min): < 1.9 μL/min/10^6 cells
- half-life ([2]; cryopreserved SD rat hepatocytes, 37.0°C, 120 min, LC-MS/MS): > 372.7 min
- hepatic clearance CLint(liver) ([2]; scaled from SD rat hepatocytes): < 8.7 mL/min/kg
- intrinsic clearance CLint(hep) ([3]; cryopreserved beagle dog hepatocytes, 37.0°C, 120 min): < 1.9 μL/min/10^6 cells
- half-life ([3]; cryopreserved beagle dog hepatocytes, 37.0°C, 120 min, LC-MS/MS): > 372.7 min
- hepatic clearance CLint(liver) ([3]; scaled from beagle dog hepatocytes): < 12.8 mL/min/kg
- IC50 [4]: > 100 µM
- IC50 [5]: > 100 µM
- IC50 [6]: > 100 µM
- IC50 [7]: > 100 µM
- Time-dependent inhibition of CYP2C9 ([7]; cutoff IC50 shift >= 1.5-fold, 30 min pre-incubation ± NADPH): no time-dependent inhibition
- Induction of CYP2B6 (enzyme activity and gene expression) [8]: not considered as an inducer
- % remaining ([9]; human hepatocytes Donor 1, 10.0 μM): 69.1%
- % remaining ([9]; human hepatocytes Donor 2, 15.0 μM): 89.3%
- % remaining ([9]; human hepatocytes Donor 3, 10.0 μM): 61.0%
- IC50 [10]: > 100 µM
- IC50 [11]: > 100 µM
- IC50 [12]: > 100 µM
- IC50 [13]: > 100 µM
